Test results as given in patent US20250276973A1, “CRYSTAL OF 7H-PYRROLO[2,3-D]PYRIMIDINE-4-AMINE DERIVATIVE” (TAIHO PHARMACEUTICAL CO., LTD., priority 2022, published 2025).

Experiments:
[1] = Solid stability test (4 weeks of storage at 80° C., closed system; HPLC); type: physicochemical; details: for Chemical purity after 4 weeks of storage at 80° C. / Solid stability (result in words): 80° C. (closed system), 4 weeks; for Chemical purity after 4 weeks of storage at 80° C.: glass bottle; for Chemical purity after 4 weeks of storage at 80° C. / Chemical purity before storage: HPLC; for Solid stability (result in words): related substances by HPLC; for Change (chemical purity): after 4 weeks at 80° C. versus before storage; for Chemical purity before storage: UV 220
Method: The solid stability of the type II crystal of Compound (1) in free form, the type III crystal of Compound (1) in free form, the type VII crystal of Compound (1) in free form, and the type VIII crystal of Compound (1) in free form obtained in the examples, reference example, and comparative example were evaluated after 4 weeks of storage by the following procedure. • Storage conditions: 80° C. (closed system) (HIFLEX (high-temperature storage chamber manufactured by ETAC)) • Storage period: 4 weeks • Storage volume: Approximately 30 mg • Storage container: Glass bottle
Changes in the mass of the related substances (the amounts of detected substances other than Compound (1)) were analyzed by HPLC according to the following method. Approximately 8 mg of each sample was weighed and dissolved in I mL of a chloroform-methanol mixture (1:1 v/v). Fifty μL of this solution was measured and diluted with 950 μL of an acetonitrile-water mixture (7:3), and 5 μL of the resulting solution was accurately measured and used as the sample for the analysis.
The mass of the related substances in the sample solution was determined by HPLC analysis. The instrument, including data processing, was handled in accordance with the method and procedure indicated for each instrument. • Column: InertSustainSwift C18 (2.1×50 mm, 1.9 μm) manufactured by GL Sciences • UV detection: […] • Column temperature: 40° C. • Flow rate: 0.3 mL/min • Sample cooler: 10° C. • Sample concentration: 0.1 mg/mL • Mobile phase A: 10 mmol/L phosphate buffer (pH 6.8)/acetonitrile (95:5) mixture • Mobile phase B: Acetonitrile • The gradients are shown in Table 4.
The solid stability of the type III crystal of Compound (1) with succinic acid, the type I crystal of Compound (1) with citric acid, the type IV crystal of Compound (1) with citric acid, the type I crystal of Compound (1) with sorbic acid, and the type I crystal of Compound (1) with phosphoric acid obtained in the examples, reference example, and comparative examples were evaluated after 4 weeks of storage. The evaluation method, storage, and measurement conditions were as described in Test Example 1.

[2] = Dynamic vapor sorption (DVS) test; type: physicochemical; details: 25° C.; for Hygroscopicity (result in words): 5 to 95% RH; for Reversibility of water adsorption when the humidity was decreased: decrease from 95% to 5% RH
Method: Vapor sorption tests were performed using the type II crystal of Compound (1) in free form, the type III crystal of Compound (1) in free form, the type VII crystal of Compound (1) in free form, and the type VIII crystal of Compound (1) in free form obtained in the examples, reference example, and comparative example.
Vapor sorption tests were conducted under the following conditions.
Approximately 10 mg of the sample was filled into a specialized quartz holder to continuously measure and record the weight of the sample at each humidity was under the following conditions. The instrument, including data processing, was handled in accordance with the method and procedure indicated for each instrument. • Instrument: VTI-SA+(manufactured by TA Instruments) • Drying temperature: 60° C. • Heating rate: 1° C./min • Equilibration of drying: Confirmation of no more than 0.01 wt % decrease in 5 minutes within a period not exceeding 300 minutes • Measurement temperature: 25° C. • Equilibration of humidification: Confirmation of no more than 0.01 wt % increase in 5 minutes within a period not exceeding 120 minutes • Relative humidity program: Increase from 5 to 95% RH in increments of 5% RH, and decrease from 95% to 5% RH in increments of 5% RH. • Changes in the weight over the range of the measurement conditions obtained in these tests are shown in FIGS. 9 through 12.
Vapor sorption tests were performed using the type III crystal of Compound (1) with succinic acid, the type I crystal of Compound (1) with citric acid, the type IV crystal of Compound (1) with citric acid, the type I crystal of Compound (1) with sorbic acid, and the type I crystal of Compound (1) with phosphoric acid obtained in the examples, reference example, and comparative examples.
Vapor sorption tests were conducted under the same conditions as in Test Example 2.

[3] = listed as Type II crystal in free form
[4] = listed as type III crystal of Compound (1) in free form

Structure (SMILES) | Chemical purity after 4 weeks of storage at 80° C. [1] [%] | Solid stability (result in words) [1] | Change (chemical purity) [1] | Chemical purity before storage [1] [%] | Hygroscopicity (result in words) [2] | Chemical purity after 4 weeks of storage at 80° C. [1, 3] [%] | Change (chemical purity) [1, 3] [%] | Chemical purity before storage [1, 3] [%] | Weight increase under 95% relative humidity ([2]; 95% RH) [%] | Solid stability (result in words) [1, 4] | Hygroscopicity (result in words) [2, 4] | Reversibility of water adsorption when the humidity was decreased [2, 4] | Solid stability (result in words) ([1]; listed as type VII crystal of Compound (1) in free form) | Reversibility of water adsorption when the humidity was decreased [2]
C#Cc1c(-c2cnc3ccccc3c2)c2c(N)ncnc2n1C12CCC(NC(=O)c3cnc(C)cn3)(CC1)C2 [Type I crystal of Compound (1) with citric acid] [N-(4-(4-amino-6-ethynyl-5-(quinolin-3-yl)-7H-pyrrolo[2,3-d]pyrimidin-7-yl)bicyclo[2.2.1]heptan-1-yl)-5-methylpyrazine-2-carboxamide] | 99.03 | unstable crystals with decreases in purity | −0.72% | 99.75 | highly hygroscopic | – | – | – | – | – | – | – | – | –
C#Cc1c(-c2cnc3ccccc3c2)c2c(N)ncnc2n1C12CCC(NC(=O)c3cnc(C)cn3)(CC1)C2 [Type I crystal of Compound (1) with phosphoric acid] [N-(4-(4-amino-6-ethynyl-5-(quinolin-3-yl)-7H-pyrrolo[2,3-d]pyrimidin-7-yl)bicyclo[2.2.1]heptan-1-yl)-5-methylpyrazine-2-carboxamide] | 99.50 | unstable crystals with decreases in purity | −0.40% | 99.90 | highly hygroscopic | – | – | – | – | – | – | – | – | –
C#Cc1c(-c2cnc3ccccc3c2)c2c(N)ncnc2n1C12CCC(NC(=O)c3cnc(C)cn3)(CC1)C2 [Type II crystal of Compound (1) in free form] [N-(4-(4-amino-6-ethynyl-5-(quinolin-3-yl)-7H-pyrrolo[2,3-d]pyrimidin-7-yl)bicyclo[2.2.1]heptan-1-yl)-5-methylpyrazine-2-carboxamide] | – | extremely stable crystals with almost no increase in the related substances | – | – | hardly hygroscopic | 99.78 | −0.02 | 99.80 | 0.16 | – | – | – | – | –
C#Cc1c(-c2cnc3ccccc3c2)c2c(N)ncnc2n1C12CCC(NC(=O)c3cnc(C)cn3)(CC1)C2 [Type III crystal in free form, N-(4-(4-amino-6-ethynyl-5-(quinolin-3-yl)-7H-pyrrolo[2,3-d]pyrimidin-7-yl)bicyclo[2.2.1]heptan-1-yl)-5-methylpyrazine-2-carboxamide] | 99.60 | – | +0.02% | 99.58 | low hygroscopicity as long as RH is less than 65% | – | – | – | – | extremely stable crystals with almost no increase in the related substances | hygroscopicity that sharply increased at above 65% RH | reversible | – | –
C#Cc1c(-c2cnc3ccccc3c2)c2c(N)ncnc2n1C12CCC(NC(=O)c3cnc(C)cn3)(CC1)C2 [Type IV crystal of Compound (1) with citric acid] [N-(4-(4-amino-6-ethynyl-5-(quinolin-3-yl)-7H-pyrrolo[2,3-d]pyrimidin-7-yl)bicyclo[2.2.1]heptan-1-yl)-5-methylpyrazine-2-carboxamide] | 93.49 | unstable crystals with decreases in purity | −6.42% | 99.91 | highly hygroscopic | – | – | – | – | – | – | – | – | –
C#Cc1c(-c2cnc3ccccc3c2)c2c(N)ncnc2n1C12CCC(NC(=O)c3cnc(C)cn3)(CC1)C2 [Type VII crystal in free form, N-(4-(4-amino-6-ethynyl-5-(quinolin-3-yl)-7H-pyrrolo[2,3-d]pyrimidin-7-yl)bicyclo[2.2.1]heptan-1-yl)-5-methylpyrazine-2-carboxamide] | 99.63 | – | – | 99.63 | highly hygroscopic | – | – | – | – | – | – | – | extremely stable crystals with almost no increase in the related substances | irreversible
C#Cc1c(-c2cnc3ccccc3c2)c2c(N)ncnc2n1C12CCC(NC(=O)c3cnc(C)cn3)(CC1)C2 [Type VIII crystal in free form, N-(4-(4-amino-6-ethynyl-5-(quinolin-3-yl)-7H-pyrrolo[2,3-d]pyrimidin-7-yl)bicyclo[2.2.1]heptan-1-yl)-5-methylpyrazine-2-carboxamide] | 99.43 | – | −0.19% | 99.62 | highly hygroscopic | – | – | – | – | – | – | – | – | irreversible
